Experiments:
[1] = test system: rabbit serum obtained by immunizing a rabbit with the SARS-CoV strain Frankfurt 1; type: binding; design: Binding of a rabbit serum to linear peptides / Binding of a rabbit serum to looped peptides / Rabbit serum linear peptides / Rabbit serum looped peptides / Binding of a rabbit serum to linear peptides of protein N of SARS-CoV Urbani (Rabbit serum linear peptides) / Binding of a rabbit serum to looped/cyclic peptides of protein N of SARS-CoV Urbani (Rabbit serum looped peptides): unit not given here
[2] = test system: antibodies in sera from SARS patients (sera 1a, 1b, 2, 6, 37, 62, London, SARS-yellow, SARS-green); type: binding, human; design: Binding of serum 6 to linear peptides of protein X1 of SARS-CoV Urbani / Binding of serum 37 to linear peptides of protein X1 of SARS-CoV Urbani / Binding of serum 6 to looped/cyclic peptide (PEPSCAN-ELISA) / Binding of serum 37 to looped/cyclic peptide (PEPSCAN-ELISA) / Binding of serum 37 to looped/cyclic peptides of protein X1 of SARS-CoV Urbani / Binding of serum 6 to linear peptides of protein X2 / Binding of serum 37 to linear peptides of protein X2 / Binding of serum 37 to looped/cyclic peptides of protein X2 of SARS-CoV Urbani / Binding of serum 6 to linear peptides of protein M of SARS-CoV Urbani / Binding of serum 37 to linear peptides of protein M of SARS-CoV Urbani / Binding of serum 6 to looped/cyclic peptides of protein M of SARS-CoV Urbani / Binding of serum 37 to looped/cyclic peptides of protein M of SARS-CoV Urbani / Binding of serum 6 to linear peptides of protein X3 of SARS-CoV Urbani / Binding of serum 37 to linear peptides of protein X3 of SARS-CoV Urbani / Binding of serum 37 to looped/cyclic peptides of protein X3 of SARS-CoV Urbani / Binding of serum 6 to linear peptides of protein X4 of SARS-CoV Urbani / Binding of serum 37 to linear peptides of protein X4 of SARS-CoV Urbani / Binding of serum 37 to looped/cyclic peptides of protein X4 of SARS-CoV Urbani / Binding of serum 6 to linear peptides of protein X5 of SARS-CoV Urbani / Binding of serum 37 to linear peptides of protein X5 of SARS-CoV Urbani / Binding of serum 37 to looped/cyclic peptides of protein X5 of SARS-CoV Urbani / Binding of serum 6 to linear peptides of protein N of SARS-CoV Urbani / Binding of serum 37 to linear peptides of protein N of SARS-CoV Urbani / Binding of serum 6 to linear peptide (PEPSCAN-ELISA) / Binding of serum 1a to looped/cyclic peptides of protein N of SARS-CoV Urbani / Binding of serum 1b to looped/cyclic peptides of protein N of SARS-CoV Urbani / Binding of serum 2 to looped/cyclic peptides of protein N of SARS-CoV Urbani / Binding of serum 6 to looped/cyclic peptides of protein N of SARS-CoV Urbani / Binding of serum 37 to looped/cyclic peptides of protein N of SARS-CoV Urbani / Binding of serum 62 to looped/cyclic peptides of protein N of SARS-CoV Urbani / Binding of serum London to looped/cyclic peptides of protein N of SARS-CoV Urbani / Binding of serum SARS-green to looped/cyclic peptides of protein N of SARS-CoV Urbani: unit not given here
[3] = test system: control sera (pooled serum of ten healthy LUMC hospital workers; commercial negative donor pooled serum from the Dutch bloodbank); type: binding, human; design: Binding of Control serum LUMC to linear peptides / Binding of Control serum Blood-bank to linear peptides / Binding of Control serum LUMC to looped peptides / Binding of Control Serum Blood-Bank to Looped peptides / Binding of Control serum LUMC to linear peptides of the protein M of SARS-CoV Urbani / Binding of Control serum Blood-bank to linear peptides of the protein M of SARS-CoV Urbani / Binding of Control serum LUMC to looped peptides of the protein M of SARS-CoV Urbani / Binding of Control Serum Blood-Bank to Looped peptides of the protein M of SARS-CoV Urbani: unit not given here
[4] = test system: recombinant human anti-SARS-CoV antibody 03-018; type: binding; design: Binding of antibody 03-018 to linear peptides of the N protein of SARS-CoV Urbani / Binding of antibody 03-018 to looped/cyclic peptides of the N protein of SARS-CoV Urbani: unit not given here

Row | Sequence | Binding of a rabbit serum to linear peptides of protein N of SARS-CoV Urbani (Rabbit serum linear peptides) [1] | Binding of a rabbit serum to looped/cyclic peptides of protein N of SARS-CoV Urbani (Rabbit serum looped peptides) [1] | Binding of serum 1a to linear peptides of protein N of SARS-CoV Urbani [2] | Binding of serum 1a to looped/cyclic peptides of protein N of SARS-CoV Urbani [2] | Binding of serum 1b to linear peptides of protein N of SARS-CoV Urbani [2] | Binding of serum 1b to looped/cyclic peptides of protein N of SARS-CoV Urbani [2] | Binding of serum 2 to linear peptides of protein N of SARS-CoV Urbani [2] | Binding of serum 2 to looped/cyclic peptides of protein N of SARS-CoV Urbani [2] | Binding of serum 6 to linear peptides of protein N of SARS-CoV Urbani [2] | Binding of serum 6 to looped/cyclic peptides of protein N of SARS-CoV Urbani [2] | Binding of serum 37 to linear peptides of protein N of SARS-CoV Urbani [2] | Binding of serum 37 to looped/cyclic peptides of protein N of SARS-CoV Urbani [2] | Binding of serum 62 to linear peptides of protein N of SARS-CoV Urbani [2] | Binding of serum 62 to looped/cyclic peptides of protein N of SARS-CoV Urbani [2] | Binding of serum London to linear peptides of protein N of SARS-CoV Urbani [2] | Binding of serum London to looped/cyclic peptides of protein N of SARS-CoV Urbani [2] | Binding of serum SARS-green to linear peptides of protein N of SARS-CoV Urbani [2] | Binding of serum SARS-green to looped/cyclic peptides of protein N of SARS-CoV Urbani [2] | Binding of serum SARS-yellow to linear peptides of protein N of SARS-CoV Urbani [2] | Binding of serum SARS-yellow to looped/cyclic peptides of protein N of SARS-CoV Urbani [2] | also measured
1 | WFTALTQHGKEELRF | 0.1 | 0.3 | 0.3 | 0.4 | 0.2 | 0.2 | 0.3 | 0.4 | 0.2 | 0.2 | 1.2 | 0.8 | 0.9 | 0.6 | 0.7 | 0.4 | 0.4 | 0.5 | 0.5 | 0.4 | Binding of Control Serum Blood-Bank to Looped peptides [3]: 0.6; Binding of Control serum Blood-bank to linear peptides [3]: 0.8; Binding of Control serum LUMC to linear peptides [3]: 0.7; Binding of Control serum LUMC to looped peptides [3]: 0.5; Binding of antibody 03-018 to linear peptides of the N protein of SARS-CoV Urbani [4]: 0.1; Binding of antibody 03-018 to looped/cyclic peptides of the N protein of SARS-CoV Urbani [4]: 0.2
2 | WLTYHGAIKLDDKDP | 0.2 | 0.2 | 0.3 | 0.2 | 0.2 | 0.1 | 0.2 | 0.2 | 0.2 | 0.1 | 0.7 | 0.4 | 0.8 | 0.3 | 0.6 | 0.3 | 0.3 | 0.0 | 0.7 | 0.2 | Control Serum Blood-Bank Looped peptides [3]: 0.4; Control serum Blood-bank linear peptides [3]: 0.8; Control serum LUMC linear peptides [3]: 0.7; Control serum LUMC looped peptides [3]: 0.4; Binding of antibody 03-018 to linear peptides of the N protein of SARS-CoV Urbani [4]: 0.1; Binding of antibody 03-018 to looped/cyclic peptides of the N protein of SARS-CoV Urbani [4]: 0.2
3 | WPQIAQFAPSASAFF | 0.1 | 0.6 | 0.2 | 0.5 | 0.1 | 0.3 | 0.1 | 0.5 | 0.2 | 0.3 | 0.6 | 0.8 | 0.5 | 0.9 | 0.5 | 0.5 | 0.3 | 0.5 | 0.7 | 0.6 | Control Serum Blood-Bank Looped peptides [3]: 0.8; Control serum Blood-bank linear peptides [3]: 0.6; Control serum LUMC linear peptides [3]: 0.6; Control serum LUMC looped peptides [3]: 0.9; Binding of antibody 03-018 to linear peptides of the N protein of SARS-CoV Urbani [4]: 0.1; Binding of antibody 03-018 to looped/cyclic peptides of the N protein of SARS-CoV Urbani [4]: 0.3
4 | WVATEGALNTPKDHI | 0.1 | 0.2 | 0.2 | 0.3 | 0.1 | 0.2 | 0.3 | 0.3 | 0.2 | 0.2 | 0.7 | 0.5 | 0.9 | 0.4 | 0.6 | 0.4 | 0.6 | 0.4 | 0.6 | 0.2 | Binding of Control Serum Blood-Bank to Looped peptides [3]: 0.5; Binding of Control serum Blood-bank to linear peptides [3]: 0.8; Binding of Control serum LUMC to linear peptides [3]: 0.9; Binding of Control serum LUMC to looped peptides [3]: 0.5; Binding of antibody 03-018 to linear peptides of the N protein of SARS-CoV Urbani [4]: 0.1; Binding of antibody 03-018 to looped/cyclic peptides of the N protein of SARS-CoV Urbani [4]: 0.2

From patent US20070128217A1 (priority 2003, published 2007)
